Test system: D3-G[…]15 cells
Assay: FLIPR assay of intracellular Ca2+ release in D3-Gα15 cells, effect of pre-incubation time at 37 °C (Table 2)
Assay type: cell-based
Details: for Ca2+ response (FLIPR signal), time at 37 °C: 5 min: 5 min pre-incubation at 37 °C; for Ca2+ response (FLIPR signal), time at 37 °C: 5 min / Ca2+ response (FLIPR signal), time at 37 °C: 15 min / % change (elevation of FLIPR signal, 5 min to 15 min pre-incubation at 37 °C): dopamine 100 nM; for Ca2+ response (FLIPR signal), time at 37 °C: 5 min / Ca2+ response (FLIPR signal), time at 37 °C: 15 min: (at or above EC90); for Ca2+ response (FLIPR signal), time at 37 °C: 15 min: 15 min pre-incubation at 37 °C; for % change (elevation of FLIPR signal, 5 min to 15 min pre-incubation at 37 °C): 15 min vs 5 min at 37 °C; for effect of prolonged preincubation at 37 °C on the induced Ca2+ response: ATP via endogenous purinergic receptors, ionomycin as ionophore
Experimental: The HEK293-Gα15 cell line stably expressing the D3 receptor was used to develop Ca^2+-based assay using the FLIPR-based method. Cells were plated in a 96 or 384 well poly-D lysine-coated FLIPR plates for 16-24 hours before the assay. Cells were loaded with cell dye-media solution (media −11 ml, dye-4 μM Fluo-4 AM, Pluronic® acid 22 ul, probenecid −110 ul of 260 mM solution) for 1 hour at 37° C. The plates were washed in the Skatron Embla™ plate washer with assay buffer (NaCl—0.145M, Glucose—0.01 M, KCl—0.005M, MgSO4—0.001 M, HEPES—0.01 M and CaCl2—0.002M) and stabilized for 30 minutes at 25° C. and 37° C., respectively, before starting the experiment. Antagonists were added 15 minutes prior to the agonist addition. The fluorescence intensities were measured using the excitation and emission wavelengths of 488 nm and 520 nm respectively. Data are taken as the average +S.D. of four replicates.
[…]. The elevation of FLIPR signal (in percentage) in 5 min and 15 min pre-incubation at 37° C. is shown.

SMILES | Ca2+ response (FLIPR signal), time at 37 °C: 5 min | Ca2+ response (FLIPR signal), time at 37 °C: 15 min | % change (elevation of FLIPR signal, 5 min to 15 min pre-incubation at 37 °C) | effect of prolonged preincubation at 37 °C on the induced Ca2+ response
Nc1ncnc2c1ncn2[C@@H]1O[C@H](COP(=O)(O)OP(=O)(O)OP(=O)(O)O)[C@@H](O)[C@H]1O [ATP] | 2859 ± 630 | 3346 ± 171 | 17% | not affected
C[C@H](CCC(=O)O)C[C@H](C)C[C@H](C)C(=O)/C=C(\O)[C@H](C)C[C@H](C)C/C=C/[C@@H](C)[C@@H](O)[C@@H](C)[C@@H](O)C[C@@H]1CC[C@@](C)([C@H]2CC[C@@](C)([C@@H](C)O)O2)O1 [ionomycin] | 8042 ± 652 | 8465 ± 132 | 5% | not affected
NCCc1ccc(O)c(O)c1 [Dopamine, dopamine] | 157 ± 47 | 550 ± 38 | 257% | –

From patent US20030104489A1, “Functional assay for agonist activation of receptors” (Pfizer Inc., priority 2001, published 2003)
